Some test systems named below: LXFL 529 NSCLC; COLO 205 colon; KM20L2 colon; HOP-18 NSCLC; DMS 273 small cell lung; DMS 114 small cell lung; SNB-78 CNS; RXF-631 renal; XF 498 CNS; DLD-1 colon; M19-MEL melanoma.
Holding throughout (test): growth of human tumour cells (NCI), 48 h

The values that follow come from PubChem BioAssay (NCI).

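Tested at 5 concentrations; 48 h exposure; 96-well plates; endpoints linearly interpolated, else capped at highest concentration. TGI: concentration producing complete growth inhibition.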

For the compound `CC1=CC(=O)NP(=O)(Oc2ccc(C)cc2)N1` (configuration not stated), the TGI in the assay on LXFL 529 NSCLC, with COLO 205 colon, in the assay with KM20L2 colon, in the assay with HOP-18 NSCLC, with DMS 273 small cell lung and in the assay on DMS 114 small cell lung was over 100 µM in each case. In addition, the TGI in the assay with SNB-78 CNS, with RXF-631 renal, in the assay with XF 498 CNS, with DLD-1 colon and in the assay on M19-MEL melanoma was over 100 µM throughout.
Regarding `COc1cc2c(c(OC)c1OC)-c1ccc(SC)c(=O)cc1C(CC(=O)Oc1ccc([N+](=O)[O-])cc1)C2` (configuration not stated), the TGI with LXFL 529 NSCLC was over 34.6 µM; in the assay with COLO 205 colon, 1.09 µM; in the assay on KM20L2 colon it was 0.465 µM; in the assay with HOP-18 NSCLC, over 48.9 µM; in the assay with DMS 273 small cell lung, over 36.9 µM; in the assay with DMS 114 small cell lung, 0.677 µM. For the same compound, the TGI came out at 41 µM in the assay with SNB-78 CNS; 0.052 µM in the assay on RXF-631 renal; 4.73 µM in the assay on XF 498 CNS; 8.69 µM with DLD-1 colon; 36.9 µM in the assay on M19-MEL melanoma.
